# From article PMC6036117, “Structural Insight Into Conformational Changes Induced by ATP Binding in a Type III Secretion-Associated ATPase From Shigella flexneri” (Frontiers in Microbiology, 2018)
# Like-named read-outs stand apart in the source and are kept apart here.
# Columns and labels:
# Spa47Δ1-83 = biological target: T1, Spa47Δ1-83 (Shigella flexneri, UniProt P0A1C1); test: Isothermal titration calorimetry (ITC) of nucleotide binding to monomeric Spa47Δ1-83; conditions: for Ka (affinity constant) / ΔH (enthalpy variation) / ΔS (entropy variation): ATP without Mg2+, other ligands with Mg2+
# T1 construct: The cDNA encoding Spa47Δ1-83 (84–430 aa) was amplified; 6xHis (pET28a, thrombin site) (N, cleaved yes); made in house; host or cells: E. coli Rosetta (DE3)
# Procedure: An isothermal titration calorimetry (ITC) assay was performed with a MicroCalTM iTC200 calorimeter (MicroCal, USA) at 25°C. Both the protein and the ATP homolog were dissolved in the same buffer (20 mM Tris-HCl, pH = 8.0, 100 mM NaCl, 5 mM MgCl2). The concentrations of Spa47Δ1-83 and the mutants were between 0.03 and 0.04 mM. The concentration of ATP analogs was between 1 and 2 mM. Titration consisted of 18 consecutive 2-μl injections of ATP analogs with a 120-s interval between injections using a stir rate of 600 rpm. The dilution heat of the ligand was measured by adding ligand to a buffer solution under these conditions, and the injection schedule was identical to that used for the protein sample. For titration of the protein with ATP, MgCl2 was omitted in the buffer. Data acquisition and analysis were performed using Origin software. A single binding site model was used for nonlinear curve fitting. ITC experiments were repeated twice for each ligand.
# muscle creatine kinase = biological target: muscle creatine kinase; parameters: method as in Forstner et al., 1999; conditions: ATP binding; ref Forstner et al., 1999; cited from earlier work
# [1] = biological target: subunit B of the A1A0 ATP synthase; parameters: method as in Kumar et al., 2009; conditions: ATP binding; ref Kumar et al., 2009; cited from earlier work
# p97 = biological target: p97; parameters: method as in Tang et al., 2010; conditions: ATP binding; ref Tang et al., 2010; cited from earlier work
# [2] = ITC, 25°C, 20 mM Tris-HCl pH 8.0, 100 mM NaCl, 5 mM MgCl2 (MgCl2 omitted for ATP), single binding site model, Kd calculated as 1/Ka, read-out: Kd (apparent dissociation constant)
SMILES,Kd (Spa47Δ1-83; [2]),"Ka (affinity constant) (Spa47Δ1-83; ITC, 25°C)","ΔH (enthalpy variation) (Spa47Δ1-83; ITC, 25°C)","ΔS (entropy variation) (Spa47Δ1-83; ITC, 25°C)",Kd (muscle creatine kinase),Kd [1],Kd (p97),Kd (Spa47Δ1-83),"Kd (Spa47Δ1-83; ITC, 25°C, 20 mM Tris-HCl pH 8.0, 100 mM NaCl, 5 mM MgCl2 (MgCl2 omitted for ATP), single binding site model, Kd calculated as 1/Ka, listed as AMP-PNP, read-out: Kd (apparent dissociation constant))","fold lower binding affinity than ATP and ATPγS (Spa47Δ1-83; ITC, relative to the affinity measured for ATP and ATPγS)"
Nc1ncnc2c1ncn2[C@@H]1O[C@H](COP(=O)(O)OP(=O)(O)OP(=O)(O)O)[C@@H](O)[C@H]1O [ATP],23.1 ± 3.44 µM,0.443±0.070 10^5. M^-1,-4.99 ± 0.53 kcal/mol,4.50 cal/mole/deg,4 to 16 µM,22 µM,0.89 µM,,,
Nc1ncnc2c1ncn2[C@@H]1O[C@H](COP(=O)(O)OP(=O)(O)O)[C@@H](O)[C@H]1O [ADP],150 ± 6.03 µM,0.067±0.003 10^5. M^-1,-17.24 ± 3.82 kcal/mol,-40.30 cal/mole/deg,,,,,,
Nc1ncnc2c1ncn2[C@@H]1O[C@H](CO[P@](=O)(O)O[P@](=O)(O)O[P@@](=O)(O)S)[C@@H](O)[C@H]1O [ATPγS],,0.472±0.017 10^5. M^-1,-8.16 ± 0.16 kcal/mol,-6.00 cal/mole/deg,,,,21.2 ± 0.8 µM,,
Nc1ncnc2c1ncn2[C@@H]1O[C@H](COP(=O)(O)OP(=O)(O)NP(=O)(O)O)[C@@H](O)[C@H]1O [AMPPNP],322 ± 12.6 µM,0.031±0.001 10^5. M^-1,-7.21 ± 0.11 kcal/mol,-8.20 cal/mole/deg,,,,,322 ± 12.6 µM,~ 15 fold
